Values of other authors, collected in patent US20070036859A1, “Sustained release antihistamine and decongestant composition” (priority 2005, published 2007).

Details: conventional tablets, oral

For CCOC(=O)N1CCC(=C2c3ccc(Cl)cc3CCc3cccnc32)CC1 [loratadine], the “duration of antihistaminic effect” value is given as over 24 h and the “time to begin of antihistaminic effect after ingestion” value is given as “one to three”.
